Each block holds one compound with its values, some of them ahead of it. Calls of active or inactive are those of the source.
Columns and labels:
Cytochrome P450 2C9 = Cytochrome P450 2C9 (Homo sapiens, UniProt P11712)
[1] = system: Streptococcus sp. 'group A'; test: Streptococcus pyogenes SK(-)GAS viability under kanamycin – luminescence, BacTiterGlo, confirmation, counter-screen for streptokinase expression inhibitor project, dose response (AID 1900); assay type: functional, organism-based
Streptococcus = test: GAS UMAA2166 growth inhibition – luminescence, BacTiterGlo, counter-screen for streptokinase expression inhibitor project, dose response (AID 1915); assay type: functional, organism-based;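 further: potency for reduction of bacterial viability or growth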
Cytochrome P450 3A4 = Cytochrome P450 3A4 (Homo sapiens, UniProt P08684);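 further: CYP3A4 tested as one member of a cytochrome P450 panel screen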
[2] = Trypanosoma cruzi growth suppression in host cells – NIH3T3 host cells, beta-gal luminescence, confirmation (AID 2044); assay type: functional, cell-based;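 further: intracellular parasites grown in NIH/3T3 mouse fibroblasts as host cells; luminescent beta-galactosidase reporter signal from transgenic T. cruzi replicating inside host cells; inhibitors lower the luminescence signal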
[3] = NIH3T3 cell viability loss – ATP luminescence, mouse fibroblasts, counter-screen, dose response (AID 2010); assay type: functional, cell-based;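 further: cells exposed to compound for about 90 hours before reading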
Cytochrome P450 1A2 = target: T1, Cytochrome P450 1A2 (Homo sapiens, UniProt P05177);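 further: PubChem cytochrome P450 panel assay, CYP1A2 panel member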
T1 sequence (P05177 whole entry): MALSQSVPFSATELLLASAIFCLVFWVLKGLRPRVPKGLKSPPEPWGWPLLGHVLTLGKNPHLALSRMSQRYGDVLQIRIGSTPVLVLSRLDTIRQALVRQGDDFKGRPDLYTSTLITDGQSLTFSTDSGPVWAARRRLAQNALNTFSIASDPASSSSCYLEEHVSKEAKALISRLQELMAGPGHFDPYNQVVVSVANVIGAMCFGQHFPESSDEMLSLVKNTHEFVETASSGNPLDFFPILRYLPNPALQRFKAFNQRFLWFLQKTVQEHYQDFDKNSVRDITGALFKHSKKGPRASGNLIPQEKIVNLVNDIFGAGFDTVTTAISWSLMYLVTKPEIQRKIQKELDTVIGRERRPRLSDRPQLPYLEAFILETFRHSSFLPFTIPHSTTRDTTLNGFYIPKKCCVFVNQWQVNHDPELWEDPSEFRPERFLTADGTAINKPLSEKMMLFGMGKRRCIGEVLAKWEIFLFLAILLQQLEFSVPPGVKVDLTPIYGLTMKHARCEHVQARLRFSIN

Cytochrome P450 2C19 = Cytochrome P450 2C19 (Homo sapiens, UniProt P33261); test: Cytochrome panel assay with activity outcomes. Panel member name: p450-cyp2c19 Compounds with AC50 equal or less than 10 uM are considered active; assay type: functional
Chain of Cytochrome P450 2C19 (P33261 whole entry): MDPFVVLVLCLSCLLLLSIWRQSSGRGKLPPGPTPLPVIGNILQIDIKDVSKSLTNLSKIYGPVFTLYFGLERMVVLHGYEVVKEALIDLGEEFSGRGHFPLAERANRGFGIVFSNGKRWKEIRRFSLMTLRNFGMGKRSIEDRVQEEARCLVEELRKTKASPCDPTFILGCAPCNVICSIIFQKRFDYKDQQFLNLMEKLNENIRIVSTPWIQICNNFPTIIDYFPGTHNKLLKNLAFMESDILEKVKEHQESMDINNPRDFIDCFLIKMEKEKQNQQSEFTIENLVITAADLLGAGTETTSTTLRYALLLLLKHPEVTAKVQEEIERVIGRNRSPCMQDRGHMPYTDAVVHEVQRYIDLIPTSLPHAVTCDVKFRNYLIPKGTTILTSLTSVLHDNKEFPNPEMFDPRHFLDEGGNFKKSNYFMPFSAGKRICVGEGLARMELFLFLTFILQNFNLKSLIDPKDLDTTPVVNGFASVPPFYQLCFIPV

Chain of Cytochrome P450 3A4 (P08684 whole entry): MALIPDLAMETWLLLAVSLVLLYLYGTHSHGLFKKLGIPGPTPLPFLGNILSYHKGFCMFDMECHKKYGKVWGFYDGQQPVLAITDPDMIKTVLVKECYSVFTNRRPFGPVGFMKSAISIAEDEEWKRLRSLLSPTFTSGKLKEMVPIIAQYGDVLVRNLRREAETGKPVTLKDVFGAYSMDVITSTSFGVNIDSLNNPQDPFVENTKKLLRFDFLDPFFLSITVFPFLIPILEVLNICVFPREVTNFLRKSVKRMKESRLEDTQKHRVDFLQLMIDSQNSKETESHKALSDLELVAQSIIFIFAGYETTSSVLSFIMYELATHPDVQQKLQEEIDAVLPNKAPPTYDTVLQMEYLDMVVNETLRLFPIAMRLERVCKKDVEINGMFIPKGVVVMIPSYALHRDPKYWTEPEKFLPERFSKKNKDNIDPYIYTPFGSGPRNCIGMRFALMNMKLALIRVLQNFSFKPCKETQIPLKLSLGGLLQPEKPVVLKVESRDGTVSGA
Chain of Cytochrome P450 2C9 (P11712 whole entry): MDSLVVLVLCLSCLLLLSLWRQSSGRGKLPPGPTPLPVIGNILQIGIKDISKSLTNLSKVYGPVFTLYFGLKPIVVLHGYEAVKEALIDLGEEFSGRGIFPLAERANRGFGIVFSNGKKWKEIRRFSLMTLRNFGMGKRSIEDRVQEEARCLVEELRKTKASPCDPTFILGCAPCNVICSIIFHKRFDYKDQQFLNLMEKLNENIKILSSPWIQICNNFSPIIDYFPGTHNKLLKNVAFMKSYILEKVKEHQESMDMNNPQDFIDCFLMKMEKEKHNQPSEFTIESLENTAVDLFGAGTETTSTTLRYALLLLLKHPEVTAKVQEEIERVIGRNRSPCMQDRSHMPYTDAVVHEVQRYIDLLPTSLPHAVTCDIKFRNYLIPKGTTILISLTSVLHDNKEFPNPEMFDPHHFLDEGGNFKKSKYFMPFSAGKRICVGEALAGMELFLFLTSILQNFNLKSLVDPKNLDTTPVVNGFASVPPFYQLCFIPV

SMILES: Cc1ccc2ccccc2c1CSc1nc(N)nc2c1ncn2CC(C)C
- AC50 (Cytochrome P450 2C9): 7.94 µM (inconclusive)

SMILES: COc1ccc(NC(C)C(=O)N/N=C/c2c(O)ccc3ccccc23)cc1 (stereo not drawn)
- EC50 [1]: 1.95 µM (active)
- EC50 (Streptococcus): 1.25 µM (active)

SMILES: O=C(c1cc(COc2ccc(F)cc2Cl)on1)N(Cc1ccncc1)CC1CCCO1 (stereo not drawn)
- EC50 [2]: 0.956 µM (active)
- EC50 [3]: > 60 µM (not active)

SMILES: COc1cccc(N2C(C(C)=O)=NN(c3ccccc3)C2c2ccc(N3CCOCC3)cc2)c1 (stereo not drawn)
- EC50 [2]: 1.49 µM (active)
- EC50 [3]: > 30 µM (not active)

SMILES: CO[C@@H]1COC(=O)[C@H]2CCCN2C(=O)[C@@H](C)COC(=O)[C@H](COCc2ccccc2)NC(=O)C/C=C\[C@H]1C
- AC50 (Cytochrome P450 3A4): 3.98 µM (inconclusive)

SMILES: CCOc1ccc2nc(NC(=O)C3CCN(c4cnccn4)CC3)sc2c1
- EC50 [2]: 2.48 µM (active)
- EC50 [3]: > 60 µM (not active)

SMILES: CCCC1(C(=O)OC)C=C2C(=C(C(C)C)C(=O)C2C)CN1 (stereo not drawn)
- AC50 (Cytochrome P450 3A4): 12.6 µM (inconclusive)
- AC50 (Cytochrome P450 2C9): 20 µM (inconclusive)

SMILES: Oc1ccc(-c2nccc(-c3ccc(Cl)cc3Cl)n2)cc1
- EC50 [2]: 1.62 µM (active)
- EC50 [3]: > 60 µM (not active)

SMILES: Cc1ccc(C)c(Oc2ccc(S(=O)(=O)N3CCN(C)CC3)cn2)c1
- EC50 [2]: 1.14 µM (active)
- EC50 [3]: > 60 µM (not active)

SMILES: Cc1ccccc1NC(=S)NC(=O)c1cc(-c2ccccc2)nc2ccccc12
- AC50 (Cytochrome P450 3A4): 3.16 µM (inconclusive)

SMILES: CCOC(=O)c1c(NC(=O)COC(=O)c2ccccc2NC)sc(C(=O)N(C)C)c1C
- EC50 [2]: 0.75 µM (active)
- EC50 [3]: > 60 µM (not active)

SMILES: N[C@@H](Cn1cc(I)c(=O)n(Cc2ccc(C(=O)O)cc2)c1=O)C(=O)O
- AC50 (Cytochrome P450 2C19; read-out: AC50): 39.8 µM (inconclusive)
- AC50 (Cytochrome P450 1A2): 31.6 µM (inconclusive)

SMILES: CCCCCCCCCCCCCCSCC(=O)O [TETRADECYLTHIOACETIC ACID]
- AC50 (Cytochrome P450 2C9): 39.8 µM (inconclusive)

SMILES: CC(C)c1ccccc1[S+]([O-])c1ccccc1C(C)(C)O (stereo not drawn)
- AC50 (Cytochrome P450 2C19; read-out: AC50): 3.16 µM (inconclusive)
- AC50 (Cytochrome P450 3A4): 3.98 µM (inconclusive)

SMILES: Cc1noc(NC(=O)Nc2ccccc2F)c1C#N
- AC50 (Cytochrome P450 1A2): 0.794 µM (inconclusive)

SMILES: COc1ccc(-c2nc3cnc(N4CCOCC4)nc3n(-c3ccc(OC)cc3)c2=O)cc1
- AC50 (Cytochrome P450 1A2): 10 µM (inconclusive)

SMILES: CC(C)CCNC(=O)C(c1cccnc1)N(Cc1ccccc1)C(=O)Cn1nnc2ccccc21 (stereo not drawn)
- EC50 [2]: 0.959 µM (active)
- EC50 [3]: > 30 µM (not active)

SMILES: CCCC(C)C(=O)Nc1ncc(S(=O)(=O)c2ccc([N+](=O)[O-])cc2)s1 (stereo not drawn)
- EC50 [2]: 2.25 µM (active)
- EC50 [3]: > 60 µM (not active)

SMILES: O=C(OCc1ccccc1)/C(=C/c1ccc(Cl)cc1)NC(=O)c1ccccc1Cl
- AC50 (Cytochrome P450 2C19; read-out: AC50): 0.316 µM (inconclusive)
- AC50 (Cytochrome P450 2C9): 1.58 µM (inconclusive)

More lines, now with the values ahead:

- AC50 (Cytochrome P450 3A4): 10 µM (inconclusive)
SMILES: CCCC[C@]1(C2CCCC2)Cc2cc(OCC(=O)O)c(Cl)c(Cl)c2C1=O

- AC50 (Cytochrome P450 3A4): 39.8 µM (inconclusive)
SMILES: CCOc1c(OC(C)=O)ccc(/C=C2\N=C(SCC)SC2=O)c1[N+](=O)[O-]

- AC50 (Cytochrome P450 1A2): 28.2 µM (inconclusive)
SMILES: COc1cc(OC)nc(NC(C)=O)n1

- AC50 (Cytochrome P450 1A2): 14.1 µM (inconclusive)
- AC50 (Cytochrome P450 3A4): 25.1 µM (inconclusive)
- AC50 (Cytochrome P450 2C9): 0.0398 µM (inconclusive)
SMILES: Cc1ccccc1C(=O)NC(NCc1ccco1)C(Cl)(Cl)Cl (stereo not drawn)

- AC50 (Cytochrome P450 2C19): inconclusive
SMILES: Cn1c(=O)c2c(nc(N/N=C\c3ccccc3C(=O)O)n2C)n(C)c1=O

- AC50 (Cytochrome P450 1A2): 25.1 µM (inconclusive)
- AC50 (Cytochrome P450 2C9): 15.8 µM (inconclusive)
SMILES: COC(=O)[C@@]1(Cc2ccc(F)cc2)[C@H]2c3cc(C(=O)N(C)C)n(Cc4ccc(S(C)(=O)=O)cc4)c3C[C@H]2CN1C(=O)c1ccccc1

- AC50 (Cytochrome P450 2C9): 25.1 µM (inconclusive)
SMILES: COc1ncc2nc(-c3ccc(Cl)cc3)c(=O)n(C[C@H]3CCCO3)c2n1

- AC50 (Cytochrome P450 3A4): 1.41 µM (inconclusive)
SMILES: O=C(CSc1ncnc2c1cnn2CCc1ccccc1)Nc1ccc(F)cc1

- AC50 (Cytochrome P450 2C19): inconclusive
SMILES: CO[C@@H]1COC(=O)[C@@H](CCSC)NC(=O)C/C=C\[C@@H](C)COC(=O)[C@H](C)NC(=O)C/C=C\[C@H]1C

- AC50 (Cytochrome P450 3A4): 3.16 µM (inconclusive)
SMILES: COC(=O)[C@@H]1CC[C@H](C)[C@@H](c2ccc(C)cc2)N1C(=O)c1ccc(/C=N\OC[C@@H]2O[C@H](c3ccccc3)C=C[C@@H]2Oc2ccc(OC)cc2)cc1

- AC50 (Cytochrome P450 1A2): 15.8 µM (inconclusive)
SMILES: C[C@@H](C(=O)NCCc1c[nH]c2ccccc12)[C@H]1C[C@]1(C)[C@H](NC(=O)OCc1ccccc1)c1ccccc1

- AC50 (Cytochrome P450 3A4): 14.1 µM (inconclusive)
- AC50 (Cytochrome P450 2C9): 10 µM (inconclusive)
SMILES: CCC(C(=O)N1CCOCC1)n1c(C(=O)OC)cc2occc21 (stereo not drawn)
